Patent US12157741B2, “Macrocyclic inhibitors of DYRK1A” (DANA-FARBER CANCER INSTITUTE, INC., priority 2018, dated 2024)
Read-outs that look alike come from different tables or passages of the source.

What was measured:
Type in all cases: binding
various enzymes [1] = target: various enzymes (Homo sapiens, UniProt Q9BWU1); conditions: compound 1 uM
Procedure: (§1) Ambit profiling was conducted in accordance with the manufacturer's instructions.

various enzymes [2] = target: various enzymes (Homo sapiens, UniProt P49137); conditions: compound 1 uM
Procedure: as §1

various enzymes [3] = target: various enzymes (Homo sapiens, UniProt Q9Y2H9); conditions: compound 1 uM
Procedure: as §1

various enzymes [4] = target: various enzymes (Homo sapiens, UniProt Q8NEB9); conditions: compound 1 uM
Sequence of various enzymes (Homo sapiens, UniProt Q8NEB9) (Q8NEB9 whole entry): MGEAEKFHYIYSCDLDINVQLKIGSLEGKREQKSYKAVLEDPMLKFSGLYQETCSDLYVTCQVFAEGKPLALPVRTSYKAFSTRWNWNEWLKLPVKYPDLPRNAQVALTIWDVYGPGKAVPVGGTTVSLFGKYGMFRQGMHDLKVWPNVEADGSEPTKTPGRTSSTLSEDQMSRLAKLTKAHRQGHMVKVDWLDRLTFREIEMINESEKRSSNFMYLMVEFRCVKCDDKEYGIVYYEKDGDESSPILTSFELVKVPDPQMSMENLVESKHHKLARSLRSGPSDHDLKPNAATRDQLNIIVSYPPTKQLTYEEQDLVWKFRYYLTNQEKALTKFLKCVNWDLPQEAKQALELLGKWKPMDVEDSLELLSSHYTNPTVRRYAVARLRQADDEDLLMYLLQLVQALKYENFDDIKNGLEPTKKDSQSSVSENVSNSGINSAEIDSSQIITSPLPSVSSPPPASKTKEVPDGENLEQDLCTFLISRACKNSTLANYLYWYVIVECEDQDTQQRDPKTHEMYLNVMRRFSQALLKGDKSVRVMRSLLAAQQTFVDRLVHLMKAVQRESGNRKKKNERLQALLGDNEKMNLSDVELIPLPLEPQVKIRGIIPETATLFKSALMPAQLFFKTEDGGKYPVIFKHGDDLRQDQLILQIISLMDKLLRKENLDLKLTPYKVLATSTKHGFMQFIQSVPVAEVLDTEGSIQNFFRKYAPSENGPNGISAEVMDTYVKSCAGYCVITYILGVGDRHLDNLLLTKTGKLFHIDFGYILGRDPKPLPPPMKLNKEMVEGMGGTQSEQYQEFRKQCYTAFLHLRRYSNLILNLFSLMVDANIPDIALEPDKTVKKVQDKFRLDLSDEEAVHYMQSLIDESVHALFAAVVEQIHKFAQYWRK
Procedure: as §1

various enzymes [5] = target: various enzymes (Homo sapiens, UniProt P29317); conditions: compound 1 uM
Procedure: as §1

various enzymes [6] = target: various enzymes (Homo sapiens, UniProt Q16539); conditions: compound 1 uM
Procedure: as §1

various enzymes [7] = target: various enzymes (Homo sapiens, UniProt P51955); conditions: compound 1 uM
Procedure: as §1

various enzymes [8] = target: various enzymes (Homo sapiens, UniProt P29597); conditions: compound 1 uM
Sequence of various enzymes (Homo sapiens, UniProt P29597) (P29597 whole entry): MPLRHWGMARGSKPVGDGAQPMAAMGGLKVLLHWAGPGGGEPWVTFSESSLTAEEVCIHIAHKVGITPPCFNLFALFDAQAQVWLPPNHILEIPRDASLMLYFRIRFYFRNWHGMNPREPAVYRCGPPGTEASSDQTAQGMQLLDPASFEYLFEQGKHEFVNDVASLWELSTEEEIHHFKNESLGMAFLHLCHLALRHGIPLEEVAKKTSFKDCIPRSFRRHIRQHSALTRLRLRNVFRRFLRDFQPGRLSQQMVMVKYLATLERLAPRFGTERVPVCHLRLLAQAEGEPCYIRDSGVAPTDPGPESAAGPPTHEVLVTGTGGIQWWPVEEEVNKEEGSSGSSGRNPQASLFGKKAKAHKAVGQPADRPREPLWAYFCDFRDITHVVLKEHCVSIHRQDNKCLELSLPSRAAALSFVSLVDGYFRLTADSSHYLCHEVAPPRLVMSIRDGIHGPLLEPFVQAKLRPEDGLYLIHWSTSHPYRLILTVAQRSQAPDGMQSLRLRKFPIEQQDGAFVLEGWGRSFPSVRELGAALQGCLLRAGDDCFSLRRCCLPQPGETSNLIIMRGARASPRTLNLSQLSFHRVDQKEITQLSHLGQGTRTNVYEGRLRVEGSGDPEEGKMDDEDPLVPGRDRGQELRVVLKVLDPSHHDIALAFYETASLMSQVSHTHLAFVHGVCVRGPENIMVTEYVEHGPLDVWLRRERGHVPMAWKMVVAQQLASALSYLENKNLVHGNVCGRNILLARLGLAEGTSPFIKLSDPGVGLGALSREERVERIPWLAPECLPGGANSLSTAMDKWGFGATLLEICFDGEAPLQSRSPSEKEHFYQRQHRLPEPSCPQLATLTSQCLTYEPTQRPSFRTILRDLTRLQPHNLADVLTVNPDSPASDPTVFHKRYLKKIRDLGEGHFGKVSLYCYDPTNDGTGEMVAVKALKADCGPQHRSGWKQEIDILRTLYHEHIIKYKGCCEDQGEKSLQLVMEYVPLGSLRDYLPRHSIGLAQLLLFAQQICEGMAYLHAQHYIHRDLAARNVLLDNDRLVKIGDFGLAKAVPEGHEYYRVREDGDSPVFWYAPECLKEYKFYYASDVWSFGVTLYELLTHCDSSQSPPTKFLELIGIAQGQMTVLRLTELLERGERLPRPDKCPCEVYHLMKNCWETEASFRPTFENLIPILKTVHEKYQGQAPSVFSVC
Procedure: as §1

various enzymes [9] = target: various enzymes (Homo sapiens, UniProt P00519, F317I); conditions: compound 1 uM
Sequence of various enzymes (Homo sapiens, UniProt P00519, F317I) (P00519 whole entry F317I): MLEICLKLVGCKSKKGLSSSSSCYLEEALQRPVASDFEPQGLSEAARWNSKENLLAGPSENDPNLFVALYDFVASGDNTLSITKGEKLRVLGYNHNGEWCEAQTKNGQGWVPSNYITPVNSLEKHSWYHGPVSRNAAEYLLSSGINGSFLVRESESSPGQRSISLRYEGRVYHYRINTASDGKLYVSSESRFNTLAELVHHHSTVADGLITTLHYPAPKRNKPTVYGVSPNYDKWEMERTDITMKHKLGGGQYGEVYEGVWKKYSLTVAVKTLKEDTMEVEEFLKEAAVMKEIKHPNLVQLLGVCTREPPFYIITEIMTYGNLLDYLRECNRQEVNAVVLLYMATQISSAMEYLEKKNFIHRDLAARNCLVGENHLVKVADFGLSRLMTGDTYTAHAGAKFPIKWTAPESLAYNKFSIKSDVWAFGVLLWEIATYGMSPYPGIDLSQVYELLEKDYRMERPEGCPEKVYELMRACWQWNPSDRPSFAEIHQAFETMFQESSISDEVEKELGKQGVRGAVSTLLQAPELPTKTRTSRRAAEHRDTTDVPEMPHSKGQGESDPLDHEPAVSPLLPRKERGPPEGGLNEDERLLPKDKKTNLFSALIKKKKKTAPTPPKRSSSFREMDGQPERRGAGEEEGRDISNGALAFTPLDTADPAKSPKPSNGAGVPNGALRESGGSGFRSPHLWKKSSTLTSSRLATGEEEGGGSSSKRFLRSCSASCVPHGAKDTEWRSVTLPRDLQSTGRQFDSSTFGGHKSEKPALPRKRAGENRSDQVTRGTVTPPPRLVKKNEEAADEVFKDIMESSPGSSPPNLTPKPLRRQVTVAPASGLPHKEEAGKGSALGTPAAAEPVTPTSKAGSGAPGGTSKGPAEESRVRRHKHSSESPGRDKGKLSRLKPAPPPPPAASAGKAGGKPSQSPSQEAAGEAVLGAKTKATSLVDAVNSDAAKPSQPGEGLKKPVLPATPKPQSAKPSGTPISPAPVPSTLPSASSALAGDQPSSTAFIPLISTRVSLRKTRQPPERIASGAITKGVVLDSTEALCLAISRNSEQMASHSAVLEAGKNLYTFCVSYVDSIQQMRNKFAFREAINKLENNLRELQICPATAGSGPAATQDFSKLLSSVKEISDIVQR
Procedure: as §1

various enzymes [10] = target: various enzymes (Homo sapiens, UniProt O43293); conditions: compound 1 uM
Procedure: as §1

various enzymes [11] = target: various enzymes (Homo sapiens, UniProt P36888, D835V)
Procedure: as §1

various enzymes [12] = target: various enzymes (Homo sapiens, UniProt P00533, L858R)
Procedure: as §1

various enzymes [13] = target: various enzymes (Homo sapiens, UniProt Q9BYP7); conditions: compound 1 uM
Procedure: as §1

various enzymes [14] = target: various enzymes (Homo sapiens, UniProt Q02750); conditions: compound 1 uM
Procedure: as §1

various enzymes [15] = target: various enzymes (Homo sapiens, UniProt Q9HCP0); conditions: compound 1 uM
Procedure: as §1

various enzymes [16] = target: T1, various enzymes (Homo sapiens, UniProt P36888, D835V, form not given)
T1 construct: other: FLT3(ITD, D835V); 1 uM; other: compound 1 uM
Procedure: as §1

various enzymes [17] = target: various enzymes (Homo sapiens, UniProt P32298); conditions: compound 1 uM
Procedure: as §1

various enzymes [18] = target: various enzymes (Homo sapiens, UniProt Q6P3R8); conditions: compound 1 uM
Procedure: as §1

various enzymes [19] = target: various enzymes (Homo sapiens, UniProt Q00536); conditions: compound 1 uM
Procedure: as §1

various enzymes [20] = target: various enzymes (Homo sapiens, UniProt P36894); conditions: compound 1 uM
Procedure: as §1

various enzymes [21] = target: various enzymes (Homo sapiens, UniProt Q8WTQ7); conditions: compound 1 uM
Procedure: as §1

various enzymes [22] = target: various enzymes (Homo sapiens, UniProt P15056, V600E)
Sequence of various enzymes (Homo sapiens, UniProt P15056, V600E) (P15056 whole entry V600E): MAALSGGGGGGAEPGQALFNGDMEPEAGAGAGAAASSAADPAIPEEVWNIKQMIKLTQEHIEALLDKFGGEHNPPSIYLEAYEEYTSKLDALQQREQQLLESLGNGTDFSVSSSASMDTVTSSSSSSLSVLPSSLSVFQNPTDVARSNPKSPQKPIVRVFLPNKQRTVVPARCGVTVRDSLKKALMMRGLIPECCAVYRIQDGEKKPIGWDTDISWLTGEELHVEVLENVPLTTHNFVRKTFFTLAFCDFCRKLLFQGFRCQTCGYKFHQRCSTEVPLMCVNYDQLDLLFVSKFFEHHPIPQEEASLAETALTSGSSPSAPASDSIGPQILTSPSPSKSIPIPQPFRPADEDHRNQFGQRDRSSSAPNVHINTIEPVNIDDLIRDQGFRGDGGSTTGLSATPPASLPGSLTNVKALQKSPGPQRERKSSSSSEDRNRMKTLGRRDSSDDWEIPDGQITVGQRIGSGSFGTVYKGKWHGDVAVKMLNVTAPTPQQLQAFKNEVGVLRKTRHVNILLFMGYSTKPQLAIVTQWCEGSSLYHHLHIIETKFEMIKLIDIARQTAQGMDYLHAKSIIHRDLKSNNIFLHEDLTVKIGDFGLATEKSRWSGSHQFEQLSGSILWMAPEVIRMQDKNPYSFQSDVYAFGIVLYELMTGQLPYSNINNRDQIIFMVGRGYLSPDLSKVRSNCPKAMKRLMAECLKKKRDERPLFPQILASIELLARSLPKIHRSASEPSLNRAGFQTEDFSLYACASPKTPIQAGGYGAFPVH
Procedure: as §1

various enzymes [23] = target: various enzymes (Homo sapiens, UniProt P36888, N841I); conditions: compound 1 uM
Procedure: as §1

various enzymes [24] = target: various enzymes (Homo sapiens, UniProt Q14680); conditions: compound 1 uM
Procedure: as §1

various enzymes [25] = target: various enzymes (Homo sapiens, UniProt O15075); conditions: compound 1 uM
Procedure: as §1

various enzymes [26] = target: various enzymes (Homo sapiens, UniProt Q9H2G2); conditions: compound 1 uM
Procedure: as §1

various enzymes [27] = target: various enzymes (Homo sapiens, UniProt O15111); conditions: compound 1 uM
Procedure: as §1

various enzymes [28] = target: various enzymes (Homo sapiens, UniProt Q15569); conditions: compound 1 uM
Procedure: as §1

various enzymes [29] = target: various enzymes (Homo sapiens, UniProt Q13557); conditions: compound 1 uM
Procedure: as §1

various enzymes [30] = target: various enzymes (Homo sapiens, UniProt Q9H0K1); conditions: compound 1 uM
Procedure: as §1

various enzymes [31] = target: various enzymes (Homo sapiens, UniProt O14965); conditions: compound 1 uM
Procedure: as §1

various enzymes [32] = target: various enzymes (Homo sapiens, UniProt P51817); conditions: compound 1 uM
Procedure: as §1

various enzymes [33] = target: various enzymes (Homo sapiens, UniProt Q8NFD2); conditions: compound 1 uM
Procedure: as §1

various enzymes [34] = target: various enzymes (Homo sapiens, UniProt P10721); conditions: compound 1 uM
Sequence of various enzymes (Homo sapiens, UniProt P10721) (P10721 26-976): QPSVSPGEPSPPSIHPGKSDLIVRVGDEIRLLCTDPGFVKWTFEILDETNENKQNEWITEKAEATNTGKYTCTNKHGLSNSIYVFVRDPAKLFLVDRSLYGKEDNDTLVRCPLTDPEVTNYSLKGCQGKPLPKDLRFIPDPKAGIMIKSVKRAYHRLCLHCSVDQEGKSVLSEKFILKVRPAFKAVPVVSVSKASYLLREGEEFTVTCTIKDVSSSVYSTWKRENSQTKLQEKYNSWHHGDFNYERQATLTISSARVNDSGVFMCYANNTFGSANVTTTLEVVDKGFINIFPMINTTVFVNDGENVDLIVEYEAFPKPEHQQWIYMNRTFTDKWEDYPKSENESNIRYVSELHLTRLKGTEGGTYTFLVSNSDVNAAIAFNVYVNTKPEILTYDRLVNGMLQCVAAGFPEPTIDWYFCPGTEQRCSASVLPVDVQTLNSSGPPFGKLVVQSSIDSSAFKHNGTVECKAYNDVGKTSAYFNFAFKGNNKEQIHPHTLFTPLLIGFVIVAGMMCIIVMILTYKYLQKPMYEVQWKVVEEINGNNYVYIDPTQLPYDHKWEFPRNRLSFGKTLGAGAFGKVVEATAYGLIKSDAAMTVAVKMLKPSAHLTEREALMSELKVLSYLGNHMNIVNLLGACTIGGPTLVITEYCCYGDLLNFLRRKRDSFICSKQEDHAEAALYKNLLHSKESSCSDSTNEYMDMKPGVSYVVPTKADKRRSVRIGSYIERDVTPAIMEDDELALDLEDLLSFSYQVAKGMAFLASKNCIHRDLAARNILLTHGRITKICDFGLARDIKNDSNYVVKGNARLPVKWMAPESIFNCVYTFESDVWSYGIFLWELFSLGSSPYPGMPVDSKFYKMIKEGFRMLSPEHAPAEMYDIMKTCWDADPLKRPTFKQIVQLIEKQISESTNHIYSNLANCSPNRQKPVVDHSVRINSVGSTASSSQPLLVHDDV
Procedure: as §1

various enzymes [35] = target: various enzymes (Homo sapiens, UniProt P04049); conditions: compound 1 uM
Procedure: as §1

various enzymes [36] = target: various enzymes (Homo sapiens, UniProt P07947); conditions: compound 1 uM
Procedure: as §1

Structure (SMILES) | Ambit profiling: CDK11 (various enzymes [1]) | Ambit profiling: MAPKAPK2 (various enzymes [2]) | Ambit profiling: MAST1 (various enzymes [3]) | Ambit profiling: VPS34 (various enzymes [4]) | Ambit profiling: EPHA2 (various enzymes [5]) | Ambit profiling: p38-alpha (various enzymes [6]) | Ambit profiling: NEK2 (various enzymes [7]) | Ambit profiling: TYK2(JH1domain-catalytic) (various enzymes [8]) | Ambit profiling: TYK2(JH2domain-pseudokinase) (various enzymes [8]) | Ambit profiling: ABL1(F317I)-nonphosphorylated (various enzymes [9]) | Ambit profiling: ABL1(F317I)-phosphorylated (various enzymes [9]) | Ambit profiling: DAPK3 (various enzymes [10]) | Ambit profiling: WNK3 (various enzymes [13]) | Ambit profiling: MEK1 (various enzymes [14]) | Ambit profiling: CSNK1G1 (various enzymes [15]) | Ambit profiling: GRK4 (various enzymes [17]) | Ambit profiling: NEK5 (various enzymes [18]) | Ambit profiling: PCTK1 (various enzymes [19]) | Ambit profiling: BMPR1A (various enzymes [20]) | Ambit profiling: GRK7 (various enzymes [21]) | other results
CC(C)N1Cc2nn(C)cc2-c2cnc3[nH]cc(c3c2)-c2cn(nc2C(F)(F)F)CCCC1=O [Compound 45, (Z)-5-isopropyl-31-methyl-13-(trifluoromethyl)-11H,21H,31H-5-aza-2(3,5)-pyrrolo[2,3-b]pyridina-1(4,1),3(4,3)-dipyrazolacyclononaphan-6-one] | 100 | 100 | 22 | 100 | 48 | 86 | 49 | 19 | 100 | 87 | 71 | 99 | 100 | 17 | 100 | 14 | 100 | 20 | 97 | 28 | Ambit profiling: FLT3(D835V) (various enzymes [11]; compound 1 uM): 0; Ambit profiling: EGFR(L858R) (various enzymes [12]; compound 1 uM): 25; Ambit profiling: FLT3(ITD, D835V) (various enzymes [16]; compound 1 uM): 0; Ambit profiling: BRAF(V600E) (various enzymes [22]; compound 1 uM): 100; Ambit profiling: FLT3(N841I) (various enzymes [23]): 0; Ambit profiling: MELK (various enzymes [24]): 0.25; Ambit profiling: DCAMKL1 (various enzymes [25]): 80; Ambit profiling: SLK (various enzymes [26]): 2.8; Ambit profiling: IKK-alpha (various enzymes [27]): 100; Ambit profiling: TESK1 (various enzymes [28]): 99; Ambit profiling: CAMK2D (various enzymes [29]): 15; Ambit profiling: SIK2 (various enzymes [30]): 27; Ambit profiling: AURKA (various enzymes [31]): 0.6; Ambit profiling: PRKX (various enzymes [32]): 100; Ambit profiling: ANKK1 (various enzymes [33]): 100; Ambit profiling: KIT (various enzymes [34]): 6.5; Ambit profiling: KIT-autoinhibited (various enzymes [34]): 69; Ambit profiling: RAF1 (various enzymes [35]): 100; Ambit profiling: YES (various enzymes [36]): 56
COc1c2c(nn1C)CN(C(C)C)C(=O)CCCn1cc(c(C(F)(F)F)n1)-c1c[nH]c3ncc-2cc13 [Compound 50, (Z)-5-isopropyl-35-methoxy-31-methyl-13-(trifluoromethyl)-11H,21H,31H-5-aza-2(3,5)-pyrrolo[2,3-b]pyridina-1(4,1),3(4,3)-dipyrazolacyclononaphan-6-one] | 49 | 100 | 40 | 83 | 56 | 81 | 68 | 19 | 84 | 56 | 19 | 71 | 100 | 12 | 81 | 38 | 64 | 66 | 88 | 9.7 | Ambit profiling: FLT3(D835V) (various enzymes [11]): 0; Ambit profiling: EGFR(L858R) (various enzymes [12]): 18; Ambit profiling: FLT3(ITD, D835V) (various enzymes [16]): 0.55; Ambit profiling: BRAF(V600E) (various enzymes [22]): 93; Ambit profiling: FLT3(N841) (various enzymes [23]): 0; Ambit profiling: MELK (various enzymes [24]): 11; Ambit profiling: DCAMKL1 (various enzymes [25]): 54; Ambit profiling: SLK (various enzymes [26]): 0.4; Ambit profiling: IKK-alpha (various enzymes [27]): 83; Ambit profiling: TESK1 (various enzymes [28]): 69; Ambit profiling: CAMK2D (various enzymes [29]): 20; Ambit profiling: SIK2 (various enzymes [30]): 32; Ambit profiling: AURKA (various enzymes [31]): 15; Ambit profiling: PRKX (various enzymes [32]): 100; Ambit profiling: ANKK1 (various enzymes [33]): 94; Ambit profiling: KIT (various enzymes [34]): 2.9; Ambit profiling: KIT-autoinhibited (various enzymes [34]): 76; Ambit profiling: RAF1 (various enzymes [35]): 93; Ambit profiling: YES (various enzymes [36]): 21
